Source: patent publication US11435363B2, “Relevance of achieved levels of markers of systemic inflammation following treatment” (The Brigham and Women's Hospital, Inc., priority 2004, dated 2022)

Legend:
[1] = system: CRP; settings: for median CRP level at day 30 / median CRP level at end of study: atorvastatin 80 mg/day or pravastatin 40 mg/day orally; for median CRP level at day 30 / median CRP level at end of study / proportion of treated patients who achieved CRP levels below 2.0 at day 30: P<0.001; for median CRP level at end of study: end of study (mean 24 months); for proportion of treated patients who achieved CRP levels below 2.0 at day 30: atorvastatin 80 mg or pravastatin 40 mg
Text: (§1) In total, 4,162 patients who had been hospitalized within the preceding 10 days for acute coronary syndrome and provided written informed consent were enrolled at 349 sites in eight countries. Approximately two-thirds had acute myocardial infarction and the remainder had high-risk unstable angina.
(§2) For this analysis, we defined achieved LDLC and achieved CRP levels as those values obtained at the 30 day follow-up, a period of time adequate for the effect of statin therapy to be seen for both LDLC and CRP and a time when any residual effects of ischemia on each parameter would no longer be evident. Of the total cohort, 3,745 participants (90.0 percent) were alive and free of a recurrent event at day 30 and underwent evaluation for both LDLC and CRP at that time. All laboratory measurements were made in core facilities and a validated assay for high sensitivity CRP used (Denka Seiken).
(§3) Spearman correlation coefficients were used to evaluate the relationship between achieved LDLC and achieved CRP. We then used a multi-stage process to address the impact of achieved LDLC and achieved CRP levels on rates of recurrent myocardial infarction or fatal coronary events that occurred after day 30 in the study. First, we divided the study population into increasing quartiles of achieved LDLC and achieved CRP and sought evidence that these levels were associated with increased risk of recurrent myocardial infarction or coronary death, both in age-adjusted analyses and after further adjustment for gender, smoking status (current/non-smoker), diabetes, body mass index (kg/m^2), and history of hypertension. […] To address the relative impact of achieved CRP across LDLC strata, we repeated this process after dividing the study cohort into four groups on the basis of achieved LDLC levels and achieved CRP levels above or below the respective values of 70 mg/dL and 2.0 mg/L. A test for trend across groups was performed assigning a score of 0 to those with low levels of both, a score of 1 to the two intermediate groups, and a score of 2 to those with high levels of both. Similar analyses were performed after stratification of the study group according to atorvastatin or pravastatin allocation. Estimates of hazard ratios were obtained using Cox proportional-hazards models.

[2] = system: LDLC; assay: PROVE IT-TIMI 22: LDLC levels on statin therapy; type: in vivo, human; settings: for proportion of allocated patients who achieved an LDLC goal of <70 mg/dL: day 30, atorvastatin 80 mg or pravastatin 40 mg, P<0.001
Text: as §1, §2
Spearman correlation coefficients were used to evaluate the relationship between achieved LDLC and achieved CRP. We then used a multi-stage process to address the impact of achieved LDLC and achieved CRP levels on rates of recurrent myocardial infarction or fatal coronary events that occurred after day 30 in the study. First, we divided the study population into increasing quartiles of achieved LDLC and achieved CRP and sought evidence that these levels were associated with increased risk of recurrent myocardial infarction or coronary death, both in age-adjusted analyses and after further adjustment for gender, smoking status (current/non-smoker), diabetes, body mass index (kg/m^2), and history of hypertension. […] To address the relative impact of achieved CRP across LDLC strata, we repeated this process after dividing the study cohort into four groups on the basis of achieved LDLC levels and achieved CRP levels above or below the respective values of 70 mg/dL and 2.0 mg/L. A test for trend across groups was performed assigning a score of 0 to those with low levels of both, a score of 1 to the two intermediate groups, and a score of 2 to those with high levels of both. […]

[3] = system: acute coronary syndrome patients; assay: PROVE IT-TIMI 22: recurrent myocardial infarction or coronary death after day 30; type: in vivo, human; settings: for recurrent event rate, achieved LDLC <70 mg/dL and achieved CRP greater than 2.0 mg/L / recurrent event rate, achieved LDLC <70 mg/dL and achieved CRP less than 2.0 mg/L: recurrent myocardial infarction or coronary death, P for difference between agents=0.7
Text: as §1, §2, §3

[4] = system: acute coronary syndrome patients; settings: overall trial result, reference (7); cited from earlier work

| Structure (SMILES) | effect on CRP levels ([1]; gatifloxicin versus placebo allocation in this population) | proportion of allocated patients who achieved an LDLC goal of <70 mg/dL [2] [%] | median CRP level at day 30 [1] [mg/L] | median CRP level at end of study [1] [mg/1] | proportion of treated patients who achieved CRP levels below 2.0 at day 30 [1] [%] | recurrent event rate, achieved LDLC <70 mg/dL and achieved CRP greater than 2.0 mg/L [3] [per 100 person-years] | recurrent event rate, achieved LDLC <70 mg/dL and achieved CRP less than 2.0 mg/L [3] [per 100 person-years] | LDLC levels compared with the pravastatin group ([2]; day 30, 4 months and end of study, identical at randomization) | overall clinical outcome in the PROVE IT-TIMI 22 trial [4] | fully adjusted hazard ratio for atorvastatin vs pravastatin, clinical outcomes ([3]; after accounting for achieved LDLC and achieved CRP, 95% CI 0.75 to 1.34, P=0.9) |
| --- | --- | --- | --- | --- | --- | --- | --- | --- | --- | --- |
| COc1c(N2CCNC(C)C2)c(F)cc2c(=O)c(C(=O)O)cn(C3CC3)c12 (stereo not shown) [gatifloxicin] | no significant effect on CRP levels |  |  |  |  |  |  |  |  |  |
| CC[C@H](C)C(=O)O[C@H]1C[C@H](O)C=C2C=C[C@H](C)[C@H](CC[C@@H](O)C[C@@H](O)CC(=O)O)[C@H]21 [pravastatin] |  | 21.7 | 2.3 | 2.1 | 44.9 | 3.4 | 2.5 |  |  |  |
| CC(C)c1c(C(=O)Nc2ccccc2)c(-c2ccccc2)c(-c2ccc(F)cc2)n1CC[C@@H](O)C[C@@H](O)CC(=O)O [atorvastatin] |  | 72.3 | 1.6 | 1.3 | 57.5 | 3.1 | 2.3 | significantly lower | superior to pravastatin overall | 1.00 |
